Common to all, as to assay type: cell-based
Assay [1] has as its system Human embryonic stem cell lines. Briefly: hESC differentiation by 5-step 17-day protocol (treatments i-iv), gene expression by real-time quantitative PCR. The note with it: KAAD-cyclopamine maintained in the presence of retinoic acid during step 3.
Method: Human embryonic stem cell lines were differentiated for 17 days via a 5-step protocol to produce pancreatic islet hormone-expressing cells. […] Step 2 comprised 3 days differentiation in RPMI with 2% FBS containing one of the following: (a) 100 ng/mL activin A (treatment i), (b) no exogenous growth factors (treatment ii), or (c) 50 ng/mL FGF10 and 0.5 μM KAAD-cyclopamine (treatments iii and iv). Step 3 comprised 3 days differentiation in CMRL with B27 supplement (1:100) containing either (a) 2 μM retinoic acid (treatments i-iii) or (b) 2 μM retinoic acid and 0.5 μM KAAD-cyclopamine (treatment iv). Steps 4 and 5 were the same for all conditions (treatments i-iv). Step 4 comprised 2 days differentiation in CMRL with B27 supplement (1:100) containing 1 μM DAPT and 40 ng/mL exendin 4. Step 5 comprised 5 days differentiation in CMRL with B27 supplement (1:100) containing 40 ng/mL exendin 4. Duplicate samples were taken from each plate at multiple time points and gene expression was analyzed by real-time quantitative PCR.
For assay [2], the system named is Human embryonic stem cells. Briefly: hESC 19-day 5-step differentiation with varying DAPT concentrations, real-time quantitative PCR. The note with it: DAPT 0, 1, 3 or 10 μM for 2 days in step 4. The protocol:
Human embryonic stem cells were differentiated for 19 days via a 5-step protocol to achieve islet hormone-expressing cells. The first step comprised 5 days differentiation in activin A (100 ng/mL) to robustly produce DE (D'Amour, K., et al., Nature Biotechnology 23, 1534-1541, (2005)). Step 2 comprised 2 days differentiation in RPMI with 2% FBS containing FGF10 (50 ng/mL) and KAAD-cyclopamine (0.5 μM). Step 3 comprised 4 days differentiation in CMRL with B27 supplement (1:100) containing FGF10 (50 ng/mL), KAAD-cyclopamine (0.2 μM), and retinoic acid (1 μM). The fourth step comprised 2 days treatment with CMRL with B27 supplement (1:100) containing exendin 4 (40 ng/mL) and with varying concentrations of the gamma secretase inhibitor DAPT (0 μM, 1 μM, 3 μM, or 10 μM). The last step comprised 6 days differentiation in DMEM with B27 supplement (1:100) containing nicotinamide (10 mM), exendin 4 (40 ng/mL), and insulin-like growth factor (IGF)-1 (50 ng/mL). Duplicate samples were taken from each plate and gene expression was analyzed by real-time quantitative PCR.

The subject of assay [3] is Human embryonic stem cells. Briefly: hESC 16-day 4-step or 5-step differentiation time course, real-time quantitative PCR. As for the experimental part: Human embryonic stem cells were differentiated for 16 days via either a 4-step or 5-step protocol to achieve islet hormone-expressing cells. The first step comprised 3 days differentiation in activin A (100 ng/mL) to robustly produce DE (D'Amour, K., et al., Nature Biotechnology 23, 1534-1541, (2005)). Step 2 comprised 3 days differentiation in RPMI with 2% FBS containing FGF10 (50 ng/mL) and KAAD-cyclopamine (0.2 μM). In the 4-step protocol, step 3 comprised 4 days differentiation in CMRL with B27 supplement (1:100) containing FGF10 (50 ng/mL), KAAD-cyclopamine (0.2 μM), retinoic acid (2 μM), and DAPT (1 μM). In the 5-step protocol, this 4 day period was broken into two separate treatments in the same base media. For 2 days the media contained FGF10 (50 ng/mL), KAAD-cyclopamine (0.2 μM), and retinoic acid (2 μM). During the subsequent 2 days, the FGF10 was removed and the gamma-secretase inhibitor DAPT (1 μM) was added. The last step of both protocols comprised 6 days differentiation in DMEM with B27 supplement (1:100) containing nicotinamide (10 mM), exendin 4 (40 ng/mL), hepatocyte growth factor (HGF 25 ng/mL), and insulin-like growth factor (IGF)-1 (50 ng/mL). Duplicate samples were taken from each plate at multiple time points and gene expression was analyzed by real-time quantitative PCR.

For assay [4], the system named is Human embryonic stem cells. Briefly: PDX1 protein and mRNA expression under different media conditions. The note with it: insulin about 0.2-20 μg/ml or insulin-like growth factor about 10-500 ng/ml. The protocol:
Human embryonic stem cells were differentiated in RPMI medium containing activin A (100 ng/ml) for 5 days. The FBS concentrations changed from 0% for the first 24 hours followed by 0.2% for the next 24 hrs and then to 2% for the remaining 3 days. During the next 4 days, the plates were subjected to different media conditions. They were either incubated in i) RPMI with 2% FBS and activin A (100 ng/ml), ii) RPMI with 2% FBS, activin A (25 ng/ml) and retinoic acid, iii) CMRL with 0.2% FBS and B27 supplement (1:100), activin A (25 ng/ml) and retinoic acid, and iv) CMRL with 0.2% FBS and B27 supplement (1:100), activin A (25 ng/ml), retinoic acid and exendin (40 ng/ml). The concentration of retinoic acid changed from 2 μM for 48 hours followed by 1 μM for 24 hours to 0.2 μM for the last 24 hours. The cells were harvested for protein and mRNA analyses on days 7, 8 and 9.
Without sufficient insulin signaling, PDX1 mRNA was expressed without significant translation into PDX1 protein (FIGS. 4A-4B). The base medium can be RPMI, CMRL, OptiMEM or DMEM with or without 2% FBS. If the base medium is supplemented with sufficient insulin/IGF and FGF10, PDX1 protein will be expressed.

Assay [5] concerns Human ESCs. Briefly: hESC differentiation to insulin-expressing cells using noggin without exogenous retinoids, real-time PCR. As for the experimental part: Human ESCs were differentiated to definitive endoderm cells via treatment with activin A (100 ng/ml) and Wnt3a (25 ng/ml) in RPMI+0% FBS for the first day and then for 2 more days with activin A (100 ng/ml) alone in RPMI+0.2% v/v FBS. Definitive endoderm was differentiated to foregut endoderm by treatment with KGF (50 ng/ml) and KAAD-cyclopamine (0.25 μM) for 3 days in RPMI+2% v/v FBS. Differentiation then proceeded in DMEM+1% v/v B27 supplement containing KGF (50 ng/ml) and KAAD-cyclopamine (0.25 μM) for one day followed by 5 additional days of the same with or without the addition of noggin (100 ng/ml). The B27 supplement used was either with (B27+) or without (B27-) vitamin A. On days 13, 14 and 15 of differentiation, the KGF was removed but the KAAD-cyclopamine (0.25 μM) and noggin (when used) remained in the culture medium. The differentiation medium for days 16-19 consisted of CMRL+1% v/v B27 (with or without vitamin A as in previous conditions) with no additional factors. Cultures were sampled in duplicate on days 3, 6, 9, 12, 15 and 19 of differentiation and analyzed for expression of pancreatic markers using real-time PCR.
In general terms: Quantitative PCR measures a nucleic acid by following its amplification.

Assay [6] deals with Human embryonic stem cells. Briefly: hESC 17-day 4-step differentiation with or without retinoic acid, real-time quantitative PCR. The note with it: retinoic acid about 0.1-5 μM for at least about 1 day. As for the experimental part: Human embryonic stem cells were differentiated for 17 days via a 4-step protocol to achieve islet hormone-expressing cells. The first step comprised 5 days differentiation in activin A (100 ng/mL) to robustly produce DE (D'Amour, K., et al., Nature Biotechnology 23, 1534-1541, (2005)). Step 2 comprised 2 days differentiation in RPMI with 2% FBS containing FGF10 (50 ng/mL) and KAAD-cyclopamine (1 μM) followed by 2 more days that also contained DAPT (1 μM). Step 3 comprised 5 days differentiation in CMRL with B27 supplement (1:100) containing FGF10 (50 ng/mL), KAAD-cyclopamine (1 μM), DAPT (1 μM) and either with or without the addition of retinoic acid (1 μM). The fourth step comprised 4 days differentiation in CMRL with B27 supplement (1:100) containing nicotinamide (10 mM), exendin 4 (50 ng/mL), hepatocyte growth factor (HGF 25 ng/mL), and insulin-like growth factor (IGF)-1 (50 ng/mL). Duplicate samples were taken from each plate at multiple time points and gene expression was analyzed by real-time quantitative PCR.

For assay [7], the system named is Human embryonic stem cells. Briefly: hESC 21-day 4-step differentiation with three step-1 conditions, real-time quantitative PCR. The note with it: activin A 100 ng/ml, or follistatin 50 ng/ml and noggin 100 ng/ml. As for the experimental part: Human embryonic stem cells were differentiated for 21 days via a 4-step protocol to achieve islet hormone-expressing cells. Three different conditions were used for the first step after which all plates received the identical treatment. The first step comprised 5 days differentiation under one of the following conditions: i) activin A (100 ng/ml) to robustly produce DE (D'Amour, K., et al., Nature Biotechnology 23, 1534-1541, (2005)), ii) 2% FBS with no exogenous growth factors, thereby producing mesoderm and extraembryonic endoderm, or iii) follistatin (50 ng/ml) and noggin (100 ng/ml), thereby producing neural ectoderm. Step 2 comprised 3 days differentiation in RPMI with 2% FBS containing FGF10 (50 ng/mL) and KAAD-cyclopamine (1 μM). Step 3 comprised 5 days differentiation in CMRL with B27 supplement (1:100) containing FGF10 (50 ng/mL), KAAD-cyclopamine (1 μM), retinoic acid (2 μM), and DAPT (1 μM). The fourth step consisted of 8 days differentiation in DMEM with B27 supplement (1:100) containing nicotinamide (10 mM), exendin 4 (40 ng/mL), hepatocyte growth factor (HGF-25 ng/mL), and insulin-like growth factor (IGF)-1 (50 ng/mL). Duplicate samples were taken from each plate at multiple time points and gene expression was analyzed by real-time quantitative PCR.

The test system of assay [8] is Human ESCs. Briefly: hESC differentiation using combination of noggin and retinoic acid, QPCR. As for the experimental part:
Human ESCs were differentiated to definitive endoderm via treatment with activin A (100 ng/ml) and Wnt3a (25 ng/ml) in RPMI+0% FBS for the first day and then for 2 more days with activin A (100 ng/ml) alone in RPMI+0.2% v/v FBS. Definitive endoderm was differentiated to foregut endoderm by treatment with KGF (50 ng/ml) and KAAD-cyclopamine (0.25 μM) for 3 days in RPMI+2% v/v FBS. Differentiation then proceeded for 3 days in DMEM+1% v/v B27 supplement containing KAAD-cyclopamine (0.25 μM) and all-trans retinoic acid (0.1 μM or 2 μM) with or without the addition of noggin (0, 30 or 100 ng/ml). This was followed by a 2 day treatment period with the gamma-secretase inhibitor DAPT (1 μM) provided in DMEM+1% v/v B27 and subsequently the cells were cultured in CMRL+1% v/v B27 with no additional growth factors.

Where [9] appears, read: noggin 100 ng/ml, B27 with or without vitamin A.

As to `CC1=C2C[C@H]3[C@@H](CC=C4CC(=O)CC[C@@]43C)[C@@H]2CC[C@]12O[C@@H]1C[C@H](C)CN(CCNC(=O)CCCCCNC(=O)CCc3ccccc3)[C@H]1[C@H]2C` [KAAD-cyclopamine], the “Increase of performance of endocrine differentiation relative to treatment iii” value in assay [1] was 2 fold. In the case of `C[C@H](NC(=O)Cc1cc(F)cc(F)c1)C(=O)N[C@H](C(=O)OC(C)(C)C)c1ccccc1` [DAPT, N—[N-(3,5-difluorophenacetyl)-L-alanyl]-S-phenylglycine t-butyl ester], the “Effect on expression of pancreatic hormones and transcription factors after 19 days” value in assay [2] is “very little to no insulin, glucagon, somatostatin or principal pancreatic transcription factors were produced in the absence of DAPT”. Besides, in assay [3] (2-4 day application of DAPT in terminal days of RA addition or after RA withdrawal), the “Effect on NGN3 and PAX4 expression” value was “transient induction of NGN3 and PAX4 expression”. Turning to insulin-like growth factor, in assay [4], the “Effect on PDX1 protein expression” value is reported as “promotes the expression of PDX1 protein”.

Consider `CC1=C(/C=C/C(C)=C/C=C/C(C)=C/CO)C(C)(C)CCC1` [vitamin A, retinol, reference compound], for which the “Magnitude of pancreatic hormone expression” value in the assay with Human ESCs [5] (B27 supplement with versus without vitamin A) is recorded as “enhanced by the presence of vitamin A”. Regarding `CC1=C(/C=C/C(C)=C/C=C/C(C)=C/C(=O)O)C(C)(C)CCC1` [retinoic acid, all-trans retinoic acid], the “Effect on insulin expression” value in assay [6] is “insulin was not expressed unless retinoic acid was applied”. The “Effect on HNF6 and PDX1 expression” value in assay [3] (retinoic acid 2 μM in step 3) was “robustly increased expression of HNF6 and PDX1”.

With insulin: insulin as medium supplement, in assay [4], the “Effect on PDX1 protein expression” value is “promotes the expression of PDX1 protein”.

B1: activin A: growth factor of the TGFβ superfamily (protein, UniProt P08476 311-426, looked up)
Inhibin beta A chain: GLECDGKVNICCKKQFFVSFKDIGWNDWIIAPSGYHANYCEGECPSHIAGTSGSSLSFHSTVINHYRMRGHSPFANLKSCCVPTKLRPMSMLYYDDGQNIIKKDIQNMIVEECGCS
On to B1, for which, in assay [7], the “Lineage marker expression at 5 days of differentiation (step 1)” value is “robust production of definitive endoderm”.

B2: noggin: recombinant human Noggin (protein, UniProt Q13253 28-232, looked up)
Noggin: QHYLHIRPAPSDNLPLVDLIEHPDPIFDPKEKDLNETLLRSLLGGHYDPGFMATSPPEDRPGGGGGAAGGAEDLAELDQLLRQRPSGAMPSEIKGLEFSEGLAQGKKQRLSKKLRRKLQMWLWSQTFCPVLYAWNDLGSRFWPRYVKVGSCFSKRSCSVPEGMVCKPSKSVHLTVLRWRCQRRGGQRCGWIPIQYPIISECKCSC
As for B2, in the assay on Human ESCs [5] (noggin 100 ng/ml), the “Expression of pancreatic hormones INS, GCG, SST and GHRL” value is “also dependent on the presence of noggin”. Moreover, in the assay with Human ESCs [5] (setting [9]), the “Induction of PDX1 gene expression” value is listed as “not dependent on either noggin treatment” and the “NGN3 expression induced at day 12 (pancreatic endocrine differentiation)” value is “highly dependent on the presence of noggin”. The “Expression levels of PDX1 at days 9 or 11” value with Human ESCs [8] (noggin 0, 30 or 100 ng/ml with retinoic acid 0.1 μM or 2 μM) is recorded as “very little effect”. In the assay with Human ESCs [8] (noggin added to low dose RA (0.1 μM)), the “Expression of NGN3 at day 9” value is “dramatically enhanced”.

(Values after US9980986B2, “Methods of producing pancreatic hormones” (ViaCyte, Inc., priority 2006, dated 2018).)
